23 compounds from ChEMBL document CHEMBL1201862, “PubChem BioAssay data set” (2004) can be followed below.

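Compound exposure: 48 hours, 5 concentrations, 96-well plates. GI50 = concentration required for 50% inhibition of growth.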 The source made the active and inactive calls. Cut-off read from the data, not from the text of the source: active = GI50 up to about 1.1 µM and inactive = higher. Square brackets hold non-standard residues; d marks the D form. Peptide text beside a SMILES is read from it. 2Nal = N[CH](Cc1ccc2ccccc2c1)C(=O)O

Among the test systems are DMS-114; DMS-273; HOP-18; KM-20L2; LXFL 529; M19-MEL; SNB-78; XF498; RXF 631.
What all share (assay): NCI anticancer screen, dose series, 48 h

As to `O=C(CSc1nnc(Cc2ccccc2)o1)Nc1cccc([N+](=O)[O-])c1`, the GI50 with DMS-114, with DMS-273, in the assay on HOP-18, in the assay with KM-20L2, in the assay on LXFL 529 and in the assay with M19-MEL was > 100 µM (inactive) throughout. In addition, the GI50 in the assay with SNB-78 is > 100 µM (inactive).
In the case of `CCOc1ccc(NCC(=O)N2CC(=O)Nc3ccccc32)cc1`, the GI50 in the assay with DMS-273, in the assay on HOP-18, with KM-20L2, with LXFL 529, in the assay with M19-MEL and in the assay with SNB-78 was > 100 µM (inactive) throughout. For the same compound, the GI50 in the assay with XF498 was > 100 µM (inactive).
As for `COc1cc(NC(C)=O)c2[nH]c3c(C)cc(NC(C)=O)c(C)c3c2c1`, the GI50 in the assay with DMS-114, with DMS-273, with HOP-18, with KM-20L2, in the assay with LXFL 529 and in the assay with M19-MEL was > 100 µM (inactive) each time. For the same compound, in the assay on XF498, the GI50 was > 100 µM (inactive).
As for `O=C1c2ccccc2C(=O)N1Cc1ccccc1-c1c2nc(c(-c3ccccc3CN3C(=O)c4ccccc4C3=O)c3ccc([nH]3)c(-c3ccccc3CN3C(=O)c4ccccc4C3=O)c3nc(c(-c4ccccc4CN4C(=O)c5ccccc5C4=O)c4ccc1[nH]4)C=C3)C=C2`, the GI50 in the assay on DMS-114, with DMS-273, with HOP-18, with KM-20L2, in the assay on LXFL 529 and in the assay with M19-MEL was > 100 µM (inactive) each time. In addition, the GI50 in the assay with SNB-78 was > 100 µM (inactive).
For `C/C(CC(=O)Nc1ccc(Cl)cc1)=N\NC(=O)C[n+]1ccccc1`, the GI50 in the assay with DMS-114, with DMS-273, in the assay on KM-20L2, with LXFL 529, in the assay with RXF 631 and with SNB-78 was > 100 µM (inactive) in each case. Further, the GI50 with XF498 is > 100 µM (inactive).
As for `NCCNc1ccc(NCCN)c2c1C(=O)c1c(O)ccc(O)c1C2=O`, the GI50 in the assay on DMS-114 was < 0.001 µM (active); with DMS-273, < 0.001 µM (active); in the assay with HOP-18 it was 0.361 µM (active); with KM-20L2, 0.0181 µM (active); in the assay with LXFL 529 it was 0.00807 µM (active); in the assay with M19-MEL, 0.0197 µM (active). The GI50 in the assay with RXF 631 is < 0.001 µM (active); in the assay on SNB-78, 0.207 µM (active); in the assay with XF498 it was < 0.001 µM (active).
On to `CCOC(=O)C1(C#N)C(c2ccccc2)CC(O)(c2ccc([N+](=O)[O-])cc2)C(C(=O)c2ccc([N+](=O)[O-])cc2)C1c1ccccc1` (centres undefined), for which the GI50 was > 100 µM (inactive) with DMS-114; > 100 µM (inactive) in the assay on DMS-273; 29.9 µM (inactive) in the assay on HOP-18; > 100 µM (inactive) in the assay with KM-20L2; > 100 µM (inactive) in the assay with LXFL 529; > 100 µM (inactive) in the assay on M19-MEL. For the same compound, the GI50 with SNB-78 and in the assay with XF498 was > 100 µM (inactive) in each case.
For `Cc1cc(NS(=O)(=O)c2ccc(NC(=O)COC(=O)c3cccc4c(=O)c5ccccc5[nH]c34)cc2)no1`, the GI50 with DMS-114, in the assay with DMS-273, in the assay with KM-20L2, in the assay with LXFL 529, with M19-MEL and with SNB-78 was > 100 µM (inactive) in each case. The GI50 with XF498 was > 100 µM (inactive).
Turning to `Cc1c(C)c2cc3c(=O)c(CCl)coc3c(C)c2oc1=O`, the GI50 in the assay with DMS-114, in the assay with HOP-18, in the assay with KM-20L2, in the assay on LXFL 529, in the assay on M19-MEL and in the assay on RXF 631 was > 100 µM (inactive) each time. Moreover, the GI50 in the assay on SNB-78 is > 100 µM (inactive).
On to `CC(=O)OC1CC2OC(Cc3ccccc32)O1` (centres undefined), for which the GI50 was > 100 µM (inactive) with DMS-114; > 100 µM (inactive) in the assay on DMS-273; 32.8 µM (inactive) in the assay with HOP-18; > 100 µM (inactive) in the assay on KM-20L2; > 100 µM (inactive) with LXFL 529; 60.4 µM (inactive) in the assay with M19-MEL. Moreover, the GI50 in the assay with SNB-78 and in the assay with XF498 was > 100 µM (inactive) throughout.
As for `O=C[C@@H](CO)O[C@H](C=O)n1cnc2c(=O)nc[nH]c21`, the GI50 is 39.2 µM (inactive) with DMS-114; 101 µM (inactive) in the assay on DMS-273; 388 µM (inactive) in the assay on HOP-18; 426 µM (inactive) in the assay on KM-20L2; 346 µM (inactive) in the assay on M19-MEL; 562 µM (inactive) with SNB-78. In addition, in the assay on XF498, the GI50 is 459 µM (inactive).
In the case of `O=C(C=P(c1ccccc1)(c1ccccc1)c1ccccc1)CC(=S)CC(=O)C=P(c1ccccc1)(c1ccccc1)c1ccccc1`, the GI50 is 3.41 µM (inactive) in the assay with DMS-114; 2.88 µM (inactive) in the assay on DMS-273; 2.59 µM (inactive) in the assay on HOP-18; 4.29 µM (inactive) in the assay on KM-20L2; 2.77 µM (inactive) in the assay with LXFL 529; 4.57 µM (inactive) in the assay with M19-MEL. In addition, the GI50 in the assay on RXF 631 was > 100 µM (inactive).
Consider `COC(=O)C(Cc1nc2ccc(Cl)cc2nc1O)/C(=N/O)C(=O)Nc1cccc(Cl)c1C` (centres undefined), for which the GI50 in the assay on DMS-114, in the assay with DMS-273, with HOP-18, with KM-20L2, in the assay with LXFL 529 and in the assay on M19-MEL was > 100 µM (inactive) in each case. Moreover, the GI50 with SNB-78 and in the assay on XF498 was > 100 µM (inactive) throughout.
On to `O=C1NC2OC(C(O)CO)C(O)C2O1` (centres undefined), for which the GI50 with DMS-114, with DMS-273, in the assay with HOP-18, with KM-20L2, in the assay with LXFL 529 and in the assay with M19-MEL was > 100 µM (inactive) throughout. For the same compound, in the assay on XF498, the GI50 was > 100 µM (inactive).
On to `CCOc1cccc2sc(N)nc12`, for which the GI50 with DMS-114, with DMS-273, with HOP-18, in the assay on KM-20L2, with LXFL 529 and in the assay on M19-MEL was > 100 µM (inactive) in each case. Moreover, the GI50 with SNB-78 is > 100 µM (inactive).
As to `Cc1ccccc1NC(=O)C(=O)CC(=O)c1ccc([N+](=O)[O-])cc1`, the GI50 with DMS-114, in the assay with DMS-273, in the assay on HOP-18, in the assay on KM-20L2, with LXFL 529 and in the assay with M19-MEL was > 100 µM (inactive) throughout. Besides, the GI50 with RXF 631, in the assay on SNB-78 and in the assay with XF498 was > 100 µM (inactive) throughout.
With `C[N+](C)(C)CC(=O)N/N=C(\CCC(=O)NCCc1ccccc1)CC(=O)c1ccccc1`, the GI50 in the assay on DMS-114, in the assay with DMS-273, in the assay on HOP-18, in the assay on KM-20L2, in the assay with LXFL 529 and with M19-MEL was > 100 µM (inactive) in each case. Further, the GI50 with SNB-78 and with XF498 was > 100 µM (inactive) throughout.
`Cc1nc2ccc(NCCN(C)C)c3c(=O)c4cc(O)ccc4n1c23`: the GI50 was 0.885 µM (active) in the assay on DMS-114; 0.189 µM (active) in the assay on DMS-273; 0.752 µM (active) in the assay with LXFL 529; 1.54 µM (inactive) with M19-MEL; 0.0355 µM (active) in the assay with RXF 631; 1.56 µM (inactive) in the assay with XF498.
As to `CCOC(=O)CC1=CSC2=NCCN12`, the GI50 with DMS-114, in the assay with DMS-273, with HOP-18, with KM-20L2, in the assay on LXFL 529 and in the assay with M19-MEL was > 100 µM (inactive) each time. The GI50 with RXF 631, in the assay on SNB-78 and in the assay with XF498 was > 100 µM (inactive) each time.
Consider `COc1cc(C(=O)C/C(CCC(=O)Nc2ccc(Cl)cc2Cl)=N/NC(=O)C(N)=O)ccc1O`, for which the GI50 with DMS-114, with DMS-273, with HOP-18, in the assay on KM-20L2, in the assay on LXFL 529 and in the assay on M19-MEL was > 100 µM (inactive) each time. Also, the GI50 in the assay with RXF 631, in the assay on SNB-78 and in the assay on XF498 was > 100 µM (inactive) throughout.
With `COc1cc2c(c(OC)c1OC)-c1ccc(SC)c(=O)cc1[C@@H](NCc1ccc(C#N)cc1)CC2`, the GI50 in the assay with DMS-114 was 0.00236 µM (active); in the assay with DMS-273, 0.0034 µM (active); with KM-20L2, 0.00194 µM (active); with LXFL 529 it was 0.0053 µM (active); in the assay on M19-MEL, 0.00361 µM (active); with SNB-78 it was 0.00531 µM (active). For the same compound, the GI50 with XF498 was 0.00321 µM (active).
Take `COc1cc(CCc2cccnc2)cc(OC)c1OC`: the GI50 in the assay on DMS-114 is 77.4 µM (inactive); in the assay on DMS-273 it was > 100 µM (inactive); in the assay with HOP-18, > 100 µM (inactive); in the assay with KM-20L2, > 100 µM (inactive); with LXFL 529, > 100 µM (inactive); with M19-MEL, > 100 µM (inactive). Further, in the assay on SNB-78, the GI50 was > 100 µM (inactive).
Regarding `CC(C)C(NC(=O)C(CCCCN)NC(=O)C(Cc1c[nH]c2ccccc12)NC(=O)C(Cc1ccc(O)cc1)NC(=O)C(CS)NC(=O)C(N)Cc1ccc2ccccc2c1)C(=O)NC(CS)C(=O)NC(C(N)=O)C(C)O` (centres undefined) (H-[2Nal]CYWKVCT-NH2; configuration not given here), the GI50 in the assay on DMS-114, in the assay on DMS-273, with HOP-18, with KM-20L2, in the assay with LXFL 529 and in the assay on M19-MEL was > 100 µM (inactive) throughout. In addition, the GI50 was > 100 µM (inactive) with RXF 631, 8.15 µM (inactive) with SNB-78 and > 100 µM (inactive) in the assay with XF498.
